According to US8530513B1, “Pharmaceutical uses of diterpene excavatolide B from a coral or an analogue thereof” (National Sun Yat-Sen University, priority 2012, dated 2013):

Key:
Format in all cases: in vivo
iNOS = assay: TPA-induced iNOS expression in mouse skin, immunohistochemical staining; settings: topical for 6 h after TPA, anti-iNOS immunostaining
Experimental: Mice were treated or not treated topically on their shaven abdomens with acetone (vehicle only) or TPA (10 nmol in 200 μl acetone/site) for 6 h or treated first with TPA for 10 min, then with the indicated concentrations of BrD1 for 6 h. Mice were killed by cervical dislocation. Abdominal skin tissues were collected, fixed with formalin buffer and embedded in paraffin. Tissue sections ([…]) were cut and laid onto silanized glass slides and deparaffinized three times with xylene for 5 min each prior to rehydration using a graded alcohol bath. For hematoxyline and eosin staining, the sections were stained with hematoxyline and eosin staining. For immunohistochemical staining, the deparaffinized sections were boiled in 10 mM citrate buffer (pH 6.0) for 10 min for antigen retrieval and rinsed with PBS containing 0.05% Tween-20 buffer for 5 min. The sections were treated with 3% hydrogen peroxide in methanol for 15 min to decrease non-specific binding. They were subsequently washed with blocking solution (PBS containing 1% BSA) for 30 min and then PBST twice for 5 min. All slides were incubated first with 2% goat serum in blocking solution for 30 min, then with a 1:200 dilution of polyclonal iNOS antibody (eBioscience, San Diego, Calif.) at room temperature for 1 h. […] Subsequently, peroxidase-binding sites were determined by staining with 3,3′-diaminobenzidine tetrahydrochloride (Dako). […]

MMP-9 = assay: TPA-induced MMP-9 protein expression in mouse skin, western blot; settings: for TPA-induced MMP-9 protein expression (in words): topical after TPA, 24 h, indicated concentrations
Experimental: Shaven abdominal skins of female C57BL/6JNarl mice were not treated or topically treated with vehicle (acetone, 200 μl/site) or TPA (10 nmol in 200 μl acetone/site) at indicated time points or treated first with TPA for 10 min, then with the indicated concentrations of BrD1 at the indicated time points. Abdominal skin samples were collected, homogenated and lysed to prepare total proteins. Protein samples were subsequently resolved by SDS-PAGE using a gradient gel. The resolved proteins were transferred to a PVDF Immobilon-P membrane (Millipore, Bedford, Calif.), and the membrane was blocked with 5% non-fat dry milk in PBST buffer (phosphate-buffered saline (PBS) containing 0.1% Tween 20) for 60 minutes at room temperature. The membranes were incubated overnight at 4° C. with commercially available antibodies (1:1000 dilutions). Loading of equal amounts of protein was assessed using mouse β-actin. The blots were rinsed three times with PBST buffer for 5 minutes. Washed blots were incubated with HRP-conjugated secondary antibody (1:100,000 dilution), then washed again three times with PBST buffer. The transferred proteins were visualized with an enhanced chemiluminescence (ECL) detection kit (Amersham Pharmacia Biotech, Buckinghamshire, UK). Quantification of bands was performed using Image J software.
(§1) Matrix metalloproteinases (MMPs) play a crucial role in many physiological and pathological processes through remodeling extracellular matrix tissues (Stamenkovic I. J Pathol 2003, 200:448-464). Matrix metalloproteinase-9 (MMP-9), a gelatinase which has a key role in inflammatory response, is activated in skin during tissue injury (Shakarjian M P, Bhatt P, Gordon M K, Chang Y C, Casbohm S L, Rudge T L, Kiser R C, Sabourin C L, Casillas R P, Ohman-Strickland P, Riley D J, Gerecke D R. J Appl Toxicol 2006, 26:239-246). In order to evaluate the anti-inflammatory effect of BrD1 on MMP-9 activation in TPA-inflamed skin, BrD1 was topically applied after TPA treatment for 24 h. […] Inhibiton of TPA-inducedMMP-9 expression by BrD1 treatment could also be readily observed at the mRNA level.

MMP-9 mRNA = assay: TPA-induced MMP-9 mRNA expression in mouse skin, RT-PCR; settings: for TPA-induced MMP-9 mRNA expression (in words): topical after TPA, 6 h, indicated concentrations
Experimental: Shaven abdominal skins of female C57BL/6JNarl mice were untreated or topically treated with vehicle (acetone, […]) or TPA (10 nmol in […]) for 6 h or treated first with TPA for 10 min and then with the indicated concentrations of BrD1 for 6 h. Total RNA was extracted from treated abdominal skins of female mice using TRIzol reagent (Invitrogen Corp., Carlsbad, Calif.). RT-PCR reactions using AccessQuick RT-PCR system (Promega, Madison, Wis.) were carried out as described previously. The primers contained the following sequences: mouse MMP-9 sense primer 5′-[…]-3′ (SEQ ID NO. 1), and anti-sense primer 5′-[…]-3′ (SEQ ID NO. 2); mouse GAPDH sense primer 5′-[…]-3′ (SEQ ID NO. 3), and anti-sense primer 5′-[…]-3′ (SEQ ID NO. 4). Gel images were scanned and densitometry analysis of the captured image was performed using Gene Tools software (Syngene, Cambridge, UK).
as §1

CCCC(=O)O[C@H]1C/C(C)=C\[C@@H]2OC(=O)[C@]3(C)O[C@]23[C@@H](OC(C)=O)[C@H]2[C@@H](C)[C@@H](O)C[C@H](OC(C)=O)[C@]2(C)[C@H]1OC(C)=O [BrD1, excavatolide B]
TPA-induced iNOS expression (iNOS): markedly reduced the TPA-induced iNOS expression in the epidermal and dermal layers
TPA-induced iNOS expression (iNOS; listed as excavatolide B): markedly reduces the TPA-induced iNOS expression in the epidermal and dermal layers
inhibition of TPA-induced MMP-9 protein expression (MMP-9; 1 mg/site/mouse topical, 24 h after TPA): ≤ 89%
TPA-induced MMP-9 protein expression (in words) (MMP-9): significantly inhibited TPA-induced MMP-9 protein expression in a dose-dependent manner
TPA-induced MMP-9 protein expression (in words) (MMP-9; listed as excavatolide B): significantly inhibits TPA-induced MMP-9 protein expression in a dose-dependent manner
inhibition of TPA-induced MMP-9 mRNA expression (MMP-9 mRNA; 1 mg/site/mouse topical, 6 h after TPA): ≤ 82%
TPA-induced MMP-9 mRNA expression (in words) (MMP-9 mRNA): significantly inhibited MMP-9 mRNA expression in a dose-dependent manner
TPA-induced MMP-9 mRNA expression (in words) (MMP-9 mRNA; listed as excavatolide B): significantly inhibits MMP-9 mRNA expression in a dose-dependent manner
